The values below come from ChEMBL document CHEMBL1128350, “Design and evaluation of nonpeptide fibrinogen gamma-chain based GPIIb/IIIa antagonists” (J Med Chem, 1995).

Peptide text beside a SMILES is read from it.

The species entered for test [1] is Homo sapiens. Nature of the test: Inhibition (at 50 uM) of thrombin-induced platelet aggregation. In kind it is functional.
Test [2] concerns the target T1, Integrin alpha-IIb/beta-3 (Homo sapiens, UniProt P05106+P08514). Put plainly: Inhibition of biotinylated fibrinogen binding to isolated alpha IIb beta-3 integrin. In kind it is protein-complex assay.
Target sequence in this assay (P05106 27-788 limits assumed): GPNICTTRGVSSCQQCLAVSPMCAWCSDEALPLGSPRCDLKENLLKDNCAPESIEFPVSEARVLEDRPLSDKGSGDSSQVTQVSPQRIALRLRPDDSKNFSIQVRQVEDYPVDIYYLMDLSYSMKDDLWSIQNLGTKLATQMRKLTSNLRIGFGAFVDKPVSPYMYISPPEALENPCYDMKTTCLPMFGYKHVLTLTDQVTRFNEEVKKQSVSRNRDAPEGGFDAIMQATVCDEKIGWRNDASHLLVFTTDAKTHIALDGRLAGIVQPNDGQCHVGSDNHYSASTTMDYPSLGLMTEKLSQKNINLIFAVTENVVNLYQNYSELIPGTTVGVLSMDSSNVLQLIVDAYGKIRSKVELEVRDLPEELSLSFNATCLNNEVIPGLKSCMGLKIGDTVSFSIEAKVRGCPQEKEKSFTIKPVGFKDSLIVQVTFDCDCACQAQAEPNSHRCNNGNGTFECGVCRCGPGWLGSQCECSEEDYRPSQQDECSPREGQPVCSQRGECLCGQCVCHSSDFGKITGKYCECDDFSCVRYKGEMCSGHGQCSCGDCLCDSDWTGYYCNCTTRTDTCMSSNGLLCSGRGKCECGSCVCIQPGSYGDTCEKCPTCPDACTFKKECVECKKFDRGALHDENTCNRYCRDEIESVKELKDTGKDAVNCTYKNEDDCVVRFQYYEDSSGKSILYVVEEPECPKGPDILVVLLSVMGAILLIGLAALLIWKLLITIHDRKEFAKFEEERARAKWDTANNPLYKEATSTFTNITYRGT
Target sequence in this assay (P08514 32-887 limits assumed): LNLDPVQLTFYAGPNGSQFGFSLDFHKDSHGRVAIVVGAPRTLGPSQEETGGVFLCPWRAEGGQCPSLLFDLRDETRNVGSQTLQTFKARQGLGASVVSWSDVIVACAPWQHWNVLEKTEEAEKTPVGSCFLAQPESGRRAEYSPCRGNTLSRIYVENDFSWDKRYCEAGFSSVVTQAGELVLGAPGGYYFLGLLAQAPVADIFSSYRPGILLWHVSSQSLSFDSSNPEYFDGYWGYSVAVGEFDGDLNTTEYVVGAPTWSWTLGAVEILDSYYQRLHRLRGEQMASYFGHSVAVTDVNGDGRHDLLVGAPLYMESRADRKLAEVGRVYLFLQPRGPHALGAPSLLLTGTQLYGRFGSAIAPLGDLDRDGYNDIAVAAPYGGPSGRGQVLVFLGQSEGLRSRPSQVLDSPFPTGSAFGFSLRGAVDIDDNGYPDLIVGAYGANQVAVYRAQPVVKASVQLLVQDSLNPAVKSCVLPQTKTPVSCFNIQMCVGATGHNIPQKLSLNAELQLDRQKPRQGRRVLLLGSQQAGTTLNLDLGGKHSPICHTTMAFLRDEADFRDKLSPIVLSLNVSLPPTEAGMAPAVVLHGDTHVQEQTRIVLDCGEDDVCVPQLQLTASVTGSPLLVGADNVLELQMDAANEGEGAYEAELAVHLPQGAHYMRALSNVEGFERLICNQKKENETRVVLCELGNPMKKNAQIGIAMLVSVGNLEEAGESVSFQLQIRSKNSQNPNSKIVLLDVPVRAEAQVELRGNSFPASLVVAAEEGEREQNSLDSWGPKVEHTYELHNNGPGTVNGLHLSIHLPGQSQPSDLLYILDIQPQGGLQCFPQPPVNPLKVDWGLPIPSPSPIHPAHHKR
Target sequence in this assay (P08514 891-1039 limits assumed): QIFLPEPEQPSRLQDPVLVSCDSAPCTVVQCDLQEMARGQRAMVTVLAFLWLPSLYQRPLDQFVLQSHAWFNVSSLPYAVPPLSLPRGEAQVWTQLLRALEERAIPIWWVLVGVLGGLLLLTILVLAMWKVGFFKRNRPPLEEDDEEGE
The species named for test [3] is Homo sapiens. Put plainly: Inhibition (at 10 uM) of thrombin-induced platelet aggregation. Type of test: functional.
For test [4], the species on record is Homo sapiens. Nature of the test: Compound was tested for inhibition of thrombin-induced platelet aggregation at the 1.0 uM Conc. Type of test: functional.
The species named for test [5] is Homo sapiens. Put plainly: Inhibition of collagen-induced platelet aggregation […]. Type of test: functional.
Test [6] is described as follows: Percent inhibition of thrombin-induced platelet aggregation at the Conc. of 0.1 uM.
The species entered for test [7] is Homo sapiens. Put plainly: Percent inhibition of thrombin-induced platelet aggregation at 20 uM. In kind it is functional.
Test [8] is described as follows: Percent inhibition of thrombin-induced platelet aggregation at the Conc. of 0.1 uM. The source holds these as a separate data set.
The species named for test [9] is Homo sapiens. Put plainly: Percent inhibition of thrombin-induced platelet aggregation at 50 uM. Type of test: functional.
Test [10] deals with T1, Integrin alpha-IIb/beta-3. Nature of the test: (§1) Inhibition of fibrinogen binding to isolated integrin alphaIIb-beta3 at 50 uM. Type of test: protein-complex assay.
In test [11] the target is T1, Integrin alpha-IIb/beta-3. The description is as §1. In kind it is protein-complex assay. The source holds these as a separate data set.
Target sequence in this assay (P05106 27-788 limits assumed): as the sequence (P05106 27-788 limits assumed) above
Target sequence in this assay (P08514 32-887 limits assumed): as the sequence (P08514 32-887 limits assumed) above
Target sequence in this assay (P08514 891-1039 limits assumed): as the sequence (P08514 891-1039 limits assumed) above

Regarding `CC(C)(C)OC(=O)N[C@@H](CCCCN)C(=O)N1CCC[C@@H](C(=O)NCCC(=O)O)C1`, in the test filed under Homo sapiens [1], testing at 50 µM gave an inhibition of 91%. Besides, the IC50 (in general, the concentration needed to halve the response being measured) in test [2] was found to be 8 nM; in the test filed under Homo sapiens [5] it was 220 nM. For the same molecule, the inhibition – broadly, the share of the control response that was lost under treatment – at 10 µM in the test filed under Homo sapiens [3] is 87%. In addition, in the test filed under Homo sapiens [4], the inhibition at 1 µM worked out at 45%. The molecule further yielded an inhibition at 0.1 µM in test [6] of 2%.

As for `CC(C)(C)OC(=O)N[C@@H](CCCCNC(=O)OCc1ccccc1)C(=O)N1CCC[C@@H](C(=O)NCCC(=O)O)C1`, in test [2], the IC50 came to 20000 nM.

`CC(C)(C)OC(=O)N[C@H](CCCN=C(N)N)C(=O)N1CCCC(C(=O)NCCC(=O)O)C1` (some centres undefined) displayed an inhibition at 50 µM in the test filed under Homo sapiens [1] of 17%. Further, the IC50 in test [2] was 2700 nM. Besides, the inhibition at 10 µM in the test filed under Homo sapiens [3] amounted to 0%.

Molecule `CC(C)(C)OC(=O)N[C@@H](CCCCN)C(=O)N1CCCC(C(=O)NCC(=O)O)C1` (some centres undefined) came in with an inhibition at 50 µM in the test filed under Homo sapiens [1] of 24%. This molecule had a concentration for half-maximal inhibition (IC50) in test [2] of 50000 nM. The same molecule showed an inhibition at 10 µM in the test filed under Homo sapiens [3] of 7%.

In the test filed under Homo sapiens [7], `CC(C)(C)OC(=O)NC(CCCCN)C(=O)NC12CC3CC(CC(NCC(=O)O)(C3)C1)C2` (centres undefined) registered an inhibition at 20 µM of 40%.

Turning to `NCCCCCC(=O)N1CCCC(CNCCC(=O)O)C1` (centres undefined), 50 µM produced 63% inhibition in the test listed under Homo sapiens [1]. This molecule had an inhibition at 10 µM in the test filed under Homo sapiens [3] of 24%.

In turn, `O=C(O)CCNC(=O)C1CCCN(C(=O)CCC2CCNCC2)C1` (centres undefined) showed an inhibition at 0.1 µM in [8] of 4%. The molecule also came in with an inhibition at 50 µM in the test filed under Homo sapiens [1] of 91%. The half-inhibitory concentration (IC50) in test [2] was 9 nM; in the test filed under Homo sapiens [5] it was 140 nM. The same molecule returned an inhibition at 10 µM in the test filed under Homo sapiens [3] of 89%. The inhibition at 1 µM in the test filed under Homo sapiens [4] was 89%.

The molecule H-HHLGGAKQAGDV-OH yielded a concentration for half-maximal inhibition (IC50) in test [2] of 4100 nM.

`CC(C)(C)OC(=O)N[C@@H](CCCCN)C(=O)N1CCC[C@H](C(=O)NCCC(=O)O)C1` returned an inhibition at 50 µM in the test listed under Homo sapiens [1] of 91%. Also, in test [2], the concentration for half-maximal inhibition (IC50) turned out to be 28 nM. The molecule also came in with an inhibition at 10 µM in the test listed under Homo sapiens [3] of 87%. For the same molecule, the inhibition at 1 µM in the test filed under Homo sapiens [4] was 11%.

`NCCCC[C@H](N)C(=O)N1CCCC(C(=O)NCCC(=O)O)C1` (some centres undefined): the inhibition at 50 µM in the test listed under Homo sapiens [1] stood at 87%. This molecule also had a half-maximal inhibitory concentration (IC50) in test [2] of 760 nM. In addition, at 10 µM the inhibition in the test filed under Homo sapiens [3] was 48%. This molecule came in with an inhibition at 1 µM in the test listed under Homo sapiens [4] of 0%.

In turn, `CC(C)(C)OC(=O)N[C@@H](CCCCN)C(=O)N1CCCC(C(=O)NCCC(=O)O)C1` (some centres undefined) had an inhibition at 50 µM in the test listed under Homo sapiens [1] of 88%. Also, the IC50 in test [2] was determined as 29 nM; in the test filed under Homo sapiens [5] it was 350 nM. The molecule further came in with an inhibition at 10 µM in the test filed under Homo sapiens [3] of 87%. Further, 1 µM produced 21% inhibition in the test filed under Homo sapiens [4].

For `CC(C)(C)OC(=O)N[C@H](CCCCN)C(=O)N1CCCC(C(=O)NCCCC(=O)O)C1` (some centres undefined), the figures for the inhibition at 50 µM (in the test listed under Homo sapiens [1]; in [2]) were 0% and 59%, respectively. This molecule came in with an inhibition at 10 µM in the test filed under Homo sapiens [3] of 0%.

`CC(C)(C)OC(=O)N[C@@H](CCCCN)C(=O)N1CCCC(C(=O)NCCCC(=O)O)C1` (some centres undefined): testing at 50 µM in the test listed under Homo sapiens [1] gave an inhibition of 43%. Further, the inhibition at 10 µM in the test listed under Homo sapiens [3] is 7%.

With `CC(C)(C)OC(=O)N[C@H](CCCCN)C(=O)N1CCCC(C(=O)NCCC(=O)O)C1` (some centres undefined), at 50 µM the inhibition in the test filed under Homo sapiens [1] was 45%. In addition, in [2], the IC50 amounted to 740 nM. In addition, in the test listed under Homo sapiens [3], at 10 µM the inhibition was 12%.

In the case of `O=C(O)CNC12CC3CC(C1)CC(NC(=O)CCC1CCNCC1)(C3)C2`, in the test filed under Homo sapiens [9], the inhibition at 50 µM was found to be 5%. This molecule displayed an inhibition in test [10] of 49%.

Turning to `COC(=O)CNC12CC3CC(C1)CC(NC(=O)C(CCCCN)NC(=O)OCC1c4ccccc4-c4ccccc41)(C3)C2` (centres undefined), the inhibition at 50 µM in the test filed under Homo sapiens [9] was found to be 25%. This molecule gave an inhibition in [10] of 1%.

For the molecule `CC(C)NCCCC[C@@H](NC(=O)OC(C)(C)C)C(=O)N1CCCC(C(=O)NCCC(=O)O)C1` (some centres undefined), at 50 µM the inhibition in the test filed under Homo sapiens [1] was 4%. In addition, the inhibition at 5 µM in test [2] turned out to be 20%. The same molecule returned an inhibition at 10 µM in the test listed under Homo sapiens [3] of 6%.

In the test listed under Homo sapiens [1], `NCCCCCC(=O)N1CCCC(C(=O)NCCC(=O)O)C1` (centres undefined) displayed an inhibition at 50 µM of 88%. Further, the inhibition at 10 µM in the test filed under Homo sapiens [3] turned out to be 87%. This molecule also displayed an inhibition at 1 µM in the test filed under Homo sapiens [4] of 29%.

On to `COC(=O)CC(NC(=O)CNC12CC3CC(C1)CC(NC(=O)C(CCCCN)NC(=O)OCC1c4ccccc4-c4ccccc41)(C3)C2)C(=O)NC(C(=O)OC)C(C)C` (centres undefined), for which the inhibition at 50 µM in the test listed under Homo sapiens [9] is 15%. In test [10], this molecule showed an inhibition of 0%.

`COC(=O)[C@H](CC(=O)O)NC(=O)C1CCCN(C(=O)[C@H](CCCCN)NC(=O)OC(C)(C)C)C1` (some centres undefined) registered an inhibition at 50 µM in the test filed under Homo sapiens [1] of 87%. Moreover, the IC50 in test [2] amounted to 29 nM; in the test listed under Homo sapiens [5], 2630 nM. This molecule also showed an inhibition at 10 µM in the test listed under Homo sapiens [3] of 32%. Besides, the inhibition at 1 µM in the test filed under Homo sapiens [4] amounted to 2%.

In the case of `NCCCC[C@@H](N)C(=O)N1CCCC(C(=O)NCCC(=O)O)C1` (some centres undefined), in the test listed under Homo sapiens [1], at 50 µM the inhibition was 8%. The 50% inhibitory concentration (IC50) in test [2] is 2600 nM. 10 µM produced 1% inhibition in the test filed under Homo sapiens [3].

In the test listed under Homo sapiens [1], `CC(=O)N[C@@H](CCCCN)C(=O)N1CCCC(C(=O)NCCC(=O)O)C1` (some centres undefined) came in with an inhibition at 50 µM of 87%. The molecule also registered an IC50 in test [2] of 340 nM. This molecule showed an inhibition at 10 µM in the test listed under Homo sapiens [3] of 67%.

In the case of `CC(=O)N[C@H](CCCCN)C(=O)N1CCCC(C(=O)NCC(=O)O)C1` (some centres undefined), the inhibition at 50 µM in the test filed under Homo sapiens [1] stood at 4%; in [2] it was 24%.

`CC(=O)N[C@H](CCCCN)C(=O)N1CCCC(C(=O)NCCC(=O)O)C1` (some centres undefined) displayed an inhibition at 50 µM in the test filed under Homo sapiens [1] of 88%. The molecule further showed a half-maximal inhibitory concentration (IC50) in [2] of 74 nM. Besides, in the test listed under Homo sapiens [3], the inhibition at 10 µM amounted to 30%. This molecule showed an inhibition at 1 µM in the test listed under Homo sapiens [4] of 4%.

On to `C[C@H](NC(=O)OCC1c2ccccc2-c2ccccc21)C(=O)N[C@@H](CCCCN)C(=O)NC12CC3CC(CC(NCC(=O)O)(C3)C1)C2`, for which the inhibition at 50 µM in the test listed under Homo sapiens [9] worked out at 37%. The inhibition in test [10] was found to be 42%.

In the case of `CC(C)(C)OC(=O)NC(CCCN=C(N)N)C(=O)NC12CC3CC(CC(NCC(=O)O)(C3)C1)C2` (centres undefined), at 50 µM the inhibition in the test filed under Homo sapiens [9] was 9%. This molecule also displayed an inhibition in test [10] of 28%.

`CC(C)NCCCCC(NC(=O)OC(C)(C)C)C(=O)NC12CC3CC(CC(NCC(=O)O)(C3)C1)C2` (centres undefined) returned an inhibition at 50 µM in the test filed under Homo sapiens [9] of 3%. This molecule also yielded an IC50 in test [11] of 29.9 µM.

`N=C(N)NCCC[C@H](N)C(=O)NCC(=O)N[C@@H](CC(=O)O)C(=O)N[C@@H](CS)C(=O)O` (H-RGDC-OH): the IC50 in test [2] worked out at 1000 nM.

In turn, `NCCCCC(NC(=O)OCc1ccccc1)C(=O)NC12CC3CC(C1)CC(N(CC(=O)O)C(=O)COc1ccccc1)(C3)C2` (centres undefined) showed an inhibition at 50 µM in the test listed under Homo sapiens [9] of 2%. In test [10], this molecule displayed an inhibition of 33%.

In the test listed under Homo sapiens [9], `NCCCCC(NC(=O)OCc1ccccc1)C(=O)NC12CC3CC(CC(NCC(=O)O)(C3)C1)C2` (centres undefined) gave an inhibition at 50 µM of 24%. Also, the inhibition in [10] amounted to 26%.
